Experiments:
Type in all cases: cell-based
[1] = tested on: replication‐competent HIV‐1 provirus in CD4^+ T cells from HIV‐1‐infected patients; test: Quantitative viral outgrowth assay (qVOA)
Protocol: However, 1 nM PEP005 in combination with 1 μM PH02 produced a significant response that was double that produced by 1 μM PH02 on its own (Fig 10A). We confirmed this effect using a quantitative viral outgrowth assay (qVOA) with pools of CD4^+ T cells isolated from HIV‐1‐infected patient samples (Fig EV5, Appendix Table S5). […] We conclude that this combination of treatments may represent a promising candidate therapy to target persistent latent viral infection.
Figure EV5 Assay for reactivation of HIV‐1 from latently infected cells using a quantitative viral outgrowth assay Resting CD4^+ T cells from patient samples were serially diluted in 6‐ or 24‐well plates in duplicate (top) and treated as indicated (left). After 24 h, MOLT4/CCR5 cells were added to the wells, and the cultures incubated a further 14 days. HIV‐1 RNA was detected in filtered culture supernatants using RT–qPCR, and wells producing the specific PCR product are indicated in green. […]
For quantitative viral outgrowth assays (qVOA), serial dilutions of CD4^+ T lymphocytes from pooled HIV‐infected patients were plated in 6‐ or 24‐well plates (1 × 10^6 cells or < 1 × 10^6 cells, respectively). […] Viral RNA was isolated from the culture supernatants and analyzed as described above. […]

[2] = tested on: HIV‐1 LTR chromatin (Jurkat^Tat LTR‐DsRed clone #11); test: ChIP of histone H3K9 modifications at the HIV‐1 LTR
Protocol: To characterize induction of HIV‐1 expression caused by PH02 in more detail, we employed chromatin immunoprecipitation (ChIP) assays to examine changes at the LTR promoter using Jurkat^Tat LTR‐DsRed clone #11.
(§1) Figure 6 Effect of PH02 on histone modification at HIV‐1 LTR and global histone modification • Chromatin immunoprecipitation assays were performed using Jurkat^Tat LTR‐DsRed, clone 11. The cells were treated for 24 h with PH02 and/or PEP005, and ChIP was performed using antibodies against histone H3K9‐me3 (left panel) and histone H3K9‐ac (right panel). The results are presented relative to ChIP with antihistone H3 antibodies. The results are determined from three biological replicates (n = 3). Statistical significance, as determined by ratio paired t‐test, is indicated as follows: ***P < 0.0005; ****P < 0.00005. The exact P‐values are indicated in Appendix Table S1. • Western blot analysis was performed using Jurkat^Tat LTR‐DsRed, clone 11, to detect the expression of SP1, NF‐κB p65, IκBα, total H3K9‐me3, and H3K9ac. The cells were treated for 24 h with PH02 and/or PEP005. Source data are available online for this figure.
Jurkat^Tat LTR‐DsRed cells, clone #11, were treated with 3 μM PH02 and/or 10 nM PEP005, for 24 h, and the cells cross‐linked with 1% formaldehyde for 10 min at RT. The cells were resuspended in cold NP‐40 lysis buffer (0.5% NP‐40, 10 mM Tris–HCl pH 7.8, 3 mM MgCl2) containing freshly added protease inhibitor cocktail (PIC, Sigma‐Aldrich) and spun to collect nuclei. The nuclei were sonicated in buffer containing 10 mM Tris–HCl (pH 7.8), 10 mM EDTA, and 0.5% SDS to obtain DNA fragments of 200–2,000 bp using a Bioruptor sonicator (Diagenode). The chromatin fractions were precleared with protein A/G agarose beads (Millipore) and immune‐precipitated with anti‐H3K9‐me3, anti‐H3K9‐ac, or anti‐H3 antibodies (Abcam) according to the manufacturer's instructions. Cross‐links were reversed by incubating the samples at 68°C for 2 h, and DNA was purified using QIAquick PCR columns and assayed by qPCR using primers specific to the HIV‐1 LTR core promoter, AGTGGCGAGCCCTCAGAT, and […]. Results are presented as normalized relative to that for histone H3 immunoprecipitates.

[3] = tested on: SP1, NF‐κB p65, IκBα, total H3K9‐me3 and H3K9ac in Jurkat^Tat reporter cells; test: Western blot of SP1, NF‐κB p65, IκBα and global H3K9 modifications
Protocol: as §1
Figure EV3 Effect of PH compounds on SP1, NF‐κB p65, and IκBα expression Jurkat^Tat LTR‐Luciferase cells were treated with a single concentration (3 μM) of each PH compound for the indicated time points. Whole‐cell protein extract was separated by SDS–PAGE, transferred to nitrocellulose membrane, and blotted with antibodies against SP1, NF‐κB p65, and IκBα. GAPDH was used as the loading control. Source data are available online for this figure.
5 × 10^6 luciferase reporter cells/Jurkat^Tat LTR‐DsRed, clone 11, were treated with the indicated concentration of the compounds. After treatment, the cells were lysed in RIPA buffer (50 mM Tris–HCl, pH 8.0, 150 mM NaCl, 1% NP‐40, 0.5% sodium deoxycholate, 0.1% SDS), supplemented with 1× protease inhibitor cocktail and 1 mM DTT, to collect the whole‐cell protein extract, which was further quantified using Bradford assay. A 30 μg equivalent of the protein extract was mixed with the 5× SDS–PAGE sample buffer and boiled for 5 min, and then, it was separated using 12% SDS–PAGE gel and transferred to a nitrocellulose membrane. […]

[4] = single treatment, 3 μM PH02 or 10 nM PEP005, 24 h
[5] = Jurkat^Tat LTR‐DsRed clone 11, 24 h

## C/C=C(/C)C(=O)O[C@H]1C(C)=C[C@]23C(=O)[C@@H](C=C(CO)[C@@H](O)[C@]12O)[C@H]1[C@@H](C[C@H]3C)C1(C)C [PEP005, ingenol‐3‐angelate, reference compound]
[1]; 1 nM PEP005 alone, 24 h
  reactivation of virus: did not produce reactivation of virus
[2]; [4]
  H3K9 acetylation on the LTR: accumulation of H3K9 acetylation
  H3K9‐3me at the LTR relative to total histone H3: a similar effect was observed
[3]; Jurkat^Tat LTR‐DsRed clone 11, 24‐h treatment, alone or with PH02
  IκBα level: causes loss of IκBα

## CC(=O)Oc1ccccc1N(C=C1Sc2ccccc2C1=O)C(C)=O [PH02, 2‐{acetyl[(3‐oxo‐1‐benzothien‐2(3H)‐ylidene)methyl]amino}phenyl acetate]
[1]; 1 μM PH02 + 1 nM PEP005, 24 h
  virus replication: produced significant virus replication
[2]; 3 μM PH02 + 10 nM PEP005, 24 h
  H3K9 acetylation on the LTR: significant elevation
[2]; 3 μM PH02 + 10 nM PEP005, 24 h, versus either drug separately
  H3K9‐3me at the LTR relative to total histone H3: equivalent reduction
[2]; [4]
  H3K9 acetylation on the LTR: accumulation of H3K9 acetylation
  H3K9‐3me at the LTR relative to total histone H3: significantly reduced
[3]; [5]
  expression of NF‐κB p65 and SP1: mostly unaffected
  global acetylation or methylation of lysine 9 on H3: do not observe a significant effect
